# Measured values published in patent US20210052547A1 (priority 2016, published 2021).
# Experiments:
# CYP1A2 = CYP1A2 (Homo sapiens, UniProt P05177); conditions: cited from earlier work
# [1] = tested on: rats exposed to ethylene glycol; assay: murine model of ethylene glycol poisoning; format: in vivo, rat
# Experimental: A murine model of ethylene glycol poisoning has been prepared by giving 6 g/kg ethylene glycol orally once to twelve adult Sprague-Dawley rats (single oral administration).
# Rats have been sacrificed 48 hours after ethylene glycol intake, blood and urine parameters have been collected and kidneys have been removed for histopathological analyses.
# CYP3A4 = CYP3A4 (Homo sapiens, UniProt P08684); conditions: cited from earlier work
# Sequence of CYP3A4 (P08684 whole entry): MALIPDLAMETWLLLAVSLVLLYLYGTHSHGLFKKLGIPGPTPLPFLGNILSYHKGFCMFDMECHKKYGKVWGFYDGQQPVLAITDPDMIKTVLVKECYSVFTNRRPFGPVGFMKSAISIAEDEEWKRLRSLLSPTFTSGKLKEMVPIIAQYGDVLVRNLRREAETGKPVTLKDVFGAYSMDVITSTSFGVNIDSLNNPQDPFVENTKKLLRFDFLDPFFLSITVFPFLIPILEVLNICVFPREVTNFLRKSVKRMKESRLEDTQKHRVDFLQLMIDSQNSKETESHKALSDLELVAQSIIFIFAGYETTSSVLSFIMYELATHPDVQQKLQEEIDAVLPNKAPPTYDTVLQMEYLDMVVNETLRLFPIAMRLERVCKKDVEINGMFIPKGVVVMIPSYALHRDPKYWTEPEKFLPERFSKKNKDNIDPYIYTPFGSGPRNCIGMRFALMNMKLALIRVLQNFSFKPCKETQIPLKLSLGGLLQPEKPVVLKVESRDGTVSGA
# [2] = molecular target: lactate dehydrogenase 1 (LDH-1) (Homo sapiens, UniProt P07195); conditions: in neurons; cited from earlier work
# Sequence of lactate dehydrogenase 1 (LDH-1) (P07195 2-334 limits assumed): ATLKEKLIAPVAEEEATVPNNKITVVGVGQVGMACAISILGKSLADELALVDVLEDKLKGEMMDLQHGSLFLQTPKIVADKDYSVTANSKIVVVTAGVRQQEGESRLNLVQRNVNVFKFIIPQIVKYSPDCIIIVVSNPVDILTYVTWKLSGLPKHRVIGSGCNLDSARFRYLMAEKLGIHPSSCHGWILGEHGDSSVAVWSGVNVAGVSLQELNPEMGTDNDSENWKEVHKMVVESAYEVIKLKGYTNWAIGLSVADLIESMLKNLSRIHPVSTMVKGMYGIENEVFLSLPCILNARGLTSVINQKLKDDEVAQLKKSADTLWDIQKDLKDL
# [3] = tested on: calcium-oxalate kidney stone murine model; assay: calcium-oxalate kidney stone murine model (calcium chloride and hydroxyproline in drinking water); format: in vivo, rat; conditions: Stiripentol 4 g/L in drinking water (about 150 mg/Kg), 4 months, versus controls
# Description: A calcium-oxalate kidney stone murine model has been generated. […] The rats have been exposed for 4 month to this diet. […] Rats have been sacrificed at the end of the protocol and kidneys have been removed for analyses.
# [4] = tested on: uptake of gamma-aminobutyric acid (GABA); conditions: cited from earlier work
# [5] = molecular target: lactate dehydrogenase 5 (LDH-5) (Homo sapiens, UniProt P00338); conditions: in neurons; cited from earlier work
# Sequence of CYP1A2 (P05177 whole entry): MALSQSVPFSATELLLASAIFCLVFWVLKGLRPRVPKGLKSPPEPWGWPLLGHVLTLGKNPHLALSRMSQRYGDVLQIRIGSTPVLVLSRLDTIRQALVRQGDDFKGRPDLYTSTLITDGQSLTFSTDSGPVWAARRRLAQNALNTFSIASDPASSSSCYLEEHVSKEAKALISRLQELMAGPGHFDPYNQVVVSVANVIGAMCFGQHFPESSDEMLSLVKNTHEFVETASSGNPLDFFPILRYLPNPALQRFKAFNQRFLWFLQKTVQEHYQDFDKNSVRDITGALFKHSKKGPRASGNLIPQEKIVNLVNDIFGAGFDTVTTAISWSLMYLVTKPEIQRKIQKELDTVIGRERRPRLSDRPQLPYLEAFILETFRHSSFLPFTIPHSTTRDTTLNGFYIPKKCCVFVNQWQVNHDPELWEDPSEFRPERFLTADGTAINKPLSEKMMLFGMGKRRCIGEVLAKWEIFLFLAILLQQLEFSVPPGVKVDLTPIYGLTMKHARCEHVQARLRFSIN
Compound,inhibition of CYP1A2 (CYP1A2),"calcium oxalate crystals in kidneys (histopathology, kidney section coverage) ([1]; 6 g/kg ethylene glycol orally once, Stiripentol 300 mg/kg at intoxication and 4 g/L in drinking water days 1 and 2, 48 hours, p=0.0046)",urinary oxalate excretion induced by ethylene glycol poisoning ([1]; Stiripentol at therapeutic range),"renal function assessed by serum creatinine levels ([1]; ethylene glycol intoxicated rats, Stiripentol 300 mg/kg then 4 g/L in drinking water, 48 hours, p=0.009)",inhibition of CYP3A4 (CYP3A4),inhibition of pyruvate to lactate conversion by LDH-1 [2],calcium oxalate crystals in urine [3],renal function assessed by serum creatinine levels ([3]; p=0.002),inhibition of the uptake of GABA [4],inhibition of pyruvate to lactate conversion by LDH-5 [5]
"CC(C)(C)C(O)/C=C/c1ccc2c(c1)OCO2 (racemic) [Stiripentol, 4,4-dimethyl-1-[(3,4-methylenedioxy)-phenyl]-1-penten-3-ol]",inhibitor,much less crystals,decreases urinary oxalate excretion,remarkably less impaired,inhibitor,inhibit,less calcium oxalate crystals in urine,preserved renal function,inhibits,
"C/C=C/c1ccc2c(c1)OCO2 [Isosafrole, 3,4-methylenedioxyphenyl-1-propene]",,,,,,inhibit,,,,inhibit
